Test results reported in patent US11154530B2, “Pharmaceutical composition for treating liver cancer, comprising tetraarsenic hexoxide crystalline polymorph” (CHEMAS CO., LTD., priority 2016, dated 2021).

Experiments:
[1] = In vivo efficacy test in mice transplanted with H22 cells; conditions: ICR mice with H22 cells
Experimental: (§1) Human liver cancer cell line H22 cells (purchased from the Shanghai Cell Bank of Chinese Academy of Sciences) were incubated in RPMI-1640 medium supplemented with 10% FBS, 100 U/ml penicillin, and 100 μg/ml streptomycin in an incubator under conditions of 37° C., 5% CO2, and 95% air. The medium was exchanged every three days.
(§2) The mice were allowed free access to food and water, and were bred in a 12-hr light/12-hr dark cycle.
(§3) Out of the 50 mice, 10 mice were classified as the normal group, and the remaining 40 animals were subcutaneously inoculated with H22 cells at 1×10^7 cells per mouse, and bred for 7 days. […] 5-Fluorouracil (5-FU), which is used as an anticancer drug, was treated for a positive control group.
(§4) After the administration of the drug for each group, cancer sizes were measured daily using a Vernier caliper, and cancer volumes were calculated using the equation V=0.5×ab^2 (a is the longest diameter of cancer and b is the shortest diameter of cancer). In addition, the inhibition of cancer volume according to the number of days of administration was calculated by the following equation. Percentage of inhibition of cancer growth=(1−(sample treatment group/cancer model group))×100

[2] = test system: human liver cancer cell line H22 cells; experiment: as above; conditions: from cancer volume vs cancer model group
Experimental: as §1, §2, §3, §4

[3] = test system: human liver cancer cell line SMMC-7721 cells; experiment: In vivo efficacy test in mice transplanted with SMMC-7721 cells; conditions: for Cancer weight: babl/c-nu mice with SMMC-7721 cells; for Percentage (%) of inhibition of cancer growth: from cancer weight vs cancer model group
Experimental: as §1, with “SMMC-7721” for “H22”, “50” for “100”
as §2
The twenty five mice were subcutaneously inoculated into the neck site with SMMC-7721 cells at 2×10^7 cells per mouse, and bred for 7 days. […] 5-Fluorouracil (5-FU), which is used as an anticancer drug, was treated for a positive control group.
Cancer tissues were isolated from the mice after seven days of administration of the drug for each group, and visually observed. Cancer weights were measured. In addition, the inhibition of cancer growth was calculated on the basis of the measured weights of the cancer tissues by using the following equation. Percentage of inhibition of cancer growth=(1−(sample treatment group/cancer model group))×100

[4] = test system: human liver cancer cells SMMC-7721; experiment: MTT cell proliferation assay, SMMC-7721 cells; assay type: cell-based
Experimental: (§5) Fetal bovine serum (FBS) and cell culture medium were prepared (Hyclone), and dimethyl sulfoxide (DMSO) and 3-(4,5-dimethyl-thiazol-2yl)-2,5-diphenyltetrazolium bromide (MTT, Amresco LLC, USC) were prepared.
(§6) As human cancer cell lines, human liver cancer cells SMMC-7721 and HCCLM3 were obtained from the Shanghai Cell Bank of Chinese Academy of Sciences. The SMMC-7721 cells were incubated in RPMI-1640 medium supplemented with 10% FBS, 50 U/ml penicillin, and 50 μg/ml streptomycin and the HCCLM3 cells were incubated in Dulbecco's modified Eagle's medium (DMEM) supplemented with 10% FBS, 100 U/ml penicillin, and 100 μg/ml streptomycin in a humidified incubator with 5% CO2 and 95% air. […]
(§7) The effects of Example 1 and Comparative Examples 1 to 3 on cell proliferation were assessed using MTT assay. […] All the crystals were completely dissolved by standing at room temperature for 15 minutes, and the absorbance was measured using a micro-plate reader at a wavelength of 570 nm (A570nm).
(§8) The absorbance value of the control group treated without the sample was calculated as 100, and the absorbance value of the treatment group treated with the sample, compared with that of the control group, was calibrated, and the percentage of inhibition of cell proliferation was calculated according to the following equation. […]
(§9) All data were expressed as mean±standard error of the mean (mean±SEM). […]

[5] = test system: human liver cancer cells HCCLM3; experiment: MTT cell proliferation assay, HCCLM3 cells; assay type: cell-based
Experimental: as §5, §6, §7, §8, §9

[6] = Positive control group, 20 mg/kg oral daily, 5 days
[7] = Positive control group, 20 mg/kg oral daily, 7 days
[8] = Positive control group, 20 mg/kg oral daily, 9 days
[9] = Positive control group, 20 mg/kg oral daily, 11 days
[10] = Positive control group, 20 mg/kg oral daily for 7 days
[11] = Test Group 1, 4.5 mg/kg oral daily, 5 days
[12] = Test Group 1, 4.5 mg/kg oral daily, 7 days
[13] = Test Group 1, 4.5 mg/kg oral daily, 9 days
[14] = Test Group 1, 4.5 mg/kg oral daily, 11 days
[15] = Test Group 2, 2.25 mg/kg oral daily, 5 days
[16] = Test Group 2, 2.25 mg/kg oral daily, 7 days
[17] = Test Group 2, 2.25 mg/kg oral daily, 9 days
[18] = Test Group 2, 2.25 mg/kg oral daily, 11 days
[19] = Test Group 1, 4.5 mg/kg oral daily for 7 days
[20] = Test Group 2, 2.25 mg/kg oral daily for 7 days
[21] = Test Group 3, 1.125 mg/kg oral daily for 7 days

Compound: O=c1[nH]cc(F)c(=O)[nH]1 [5-Fluorouracil, reference compound]
- Cancer volume according to number of days of administration [1, 6]: 165.62 mm^3
- Cancer volume according to number of days of administration [1, 7]: 212.78 mm^3
- Cancer volume according to number of days of administration [1, 8]: 318.07 mm^3
- Cancer volume according to number of days of administration [1, 9]: 661.97 mm^3
- Percentage (%) of inhibition of cancer growth [2, 6]: 26.16%
- Percentage (%) of inhibition of cancer growth [2, 7]: 46.73%
- Percentage (%) of inhibition of cancer growth [2, 8]: 52.15%
- Percentage (%) of inhibition of cancer growth [2, 9]: 63.48%
- Cancer weight [3, 10]: 0.72 ± 0.27 g
- Percentage (%) of inhibition of cancer growth [3, 10]: 32.5%

Compound: tetraarsenic hexoxide [Example 1]
- Percentage of inhibition of SMMC-7721 cell proliferation compared with Comparative Example 1 ([4]; incubation for 48 hours and 72 hours, 0.625-80 μM, FIGS. 2A-B): higher
- Percentage of inhibition of SMMC-7721 cell proliferation compared with Comparative Example 2 or 3 ([4]; mixtures of Example 1 and Comparative Example 1 at 4:1 or 1:1, FIGS. 2A-B): higher
- Percentage of inhibition of HCCLM3 cell proliferation compared with Comparative Example 1 ([5]; incubation for 48 hours and 72 hours, 0.625-80 μM, FIGS. 3A-B): higher
- Percentage of inhibition of HCCLM3 cell proliferation compared with Comparative Example 2 or 3 ([5]; mixtures of Example 1 and Comparative Example 1 at 4:1 or 1:1, FIGS. 3A-B): higher
- Cancer volume according to number of days of administration [1, 11]: 168.09 mm^3
- Cancer volume according to number of days of administration [1, 12]: 238.22 mm^3
- Cancer volume according to number of days of administration [1, 13]: 388.85 mm^3
- Cancer volume according to number of days of administration [1, 14]: 880.55 mm^3
- Cancer volume according to number of days of administration [1, 15]: 216.75 mm^3
- Cancer volume according to number of days of administration [1, 16]: 302.66 mm^3
- Cancer volume according to number of days of administration [1, 17]: 388.56 mm^3
- Cancer volume according to number of days of administration [1, 18]: 987.61 mm^3
- Percentage (%) of inhibition of cancer growth [2, 11]: 25.06%
- Percentage (%) of inhibition of cancer growth [2, 12]: 40.36%
- Percentage (%) of inhibition of cancer growth [2, 13]: 41.50%
- Percentage (%) of inhibition of cancer growth [2, 14]: 51.42%
- Percentage (%) of inhibition of cancer growth [2, 15]: 3.36%
- Percentage (%) of inhibition of cancer growth [2, 16]: 24.23%
- Percentage (%) of inhibition of cancer growth [2, 17]: 41.54%
- Percentage (%) of inhibition of cancer growth [2, 18]: 45.52%
- Cancer weight [3, 19]: 0.65 ± 0.17 g
- Percentage (%) of inhibition of cancer growth [3, 19]: 39.7%
- Cancer weight [3, 20]: 0.70 ± 0.10 g
- Percentage (%) of inhibition of cancer growth [3, 20]: 34.3%
- Cancer weight [3, 21]: 0.77 ± 0.12 g
- Percentage (%) of inhibition of cancer growth [3, 21]: 28.0%
- Tumor tissue sizes (visual observation) ([3]; isolated cancer tissues after 7 days of oral administration, FIG. 6): reduced
